Assay results published in PubChem BioAssay AID330 (DTP/NCI, 2004).
Where “and” joins values, the source holds several entries; their conditions need not be identical. Equal entries are not always repeated. Inconclusive results and toxic doses are left out.

Test system: P388 leukemia ip, CD2F1 mice, survival T/C
Assay: NCI In Vivo Anticancer Drug Screen. Data for tumor model P388 Leukemia (intraperitoneal) in CD2F1 (CDF1) mice
Settings: endpoint: median survival time, higher = longer survival
Summary of the method: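 Mice carrying the transplanted tumor received test compound or vehicle. Survival was recorded in each group, and the value is the treated-group measurement divided by that of the vehicle-treated control group.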

[1] = dose: 50.0 mg/kg/injection, schedule: Q01DX005 (ip), vehicle: Klucel (hydroxypropylcellulose) (HPC)
[2] = dose: 100.0 mg/kg/injection, schedule: Q01DX005 (ip), vehicle: Klucel (hydroxypropylcellulose) (HPC)
[3] = dose: 60.0 mg/kg/injection, schedule: Q01DX005 (ip), vehicle: saline

For `c1ccc2c3c([nH]c2c1)[C@@H]1CCN2CCC[C@@H]2N1CC3`, the T/C (dose: 5.75 mg/kg/injection, schedule: Q01DX005 (ip), vehicle: Klucel (hydroxypropylcellulose) (HPC)) was 101 % of control, the T/C (dose: 11.5 mg/kg/injection, schedule: Q01DX005 (ip), vehicle: Klucel (hydroxypropylcellulose) (HPC)) was 100 % of control and the T/C (dose: 23.0 mg/kg/injection, schedule: Q01DX005 (ip), vehicle: Klucel (hydroxypropylcellulose) (HPC)) was 95 % of control. For the same compound, the T/C (dose: 46.0 mg/kg/injection, schedule: Q01DX005 (ip), vehicle: Klucel (hydroxypropylcellulose) (HPC)) was 93 % of control.

With `CCN1CCCC(Nc2cc(C)nc(/N=C(/N)Nc3ccc(Cl)c(Cl)c3)n2)C1` (centres undefined) the T/C (dose: 3.13 mg/kg/injection, schedule: Q01DX009 (ip), vehicle: water) was 93 % of control, the T/C (dose: 6.25 mg/kg/injection, schedule: Q01DX009 (ip), vehicle: water) was 97 % of control and the T/C (dose: 12.5 mg/kg/injection, schedule: Q01DX009 (ip), vehicle: water) was 107 % of control and 97 % of control. For the same compound, the T/C (dose: 25.0 mg/kg/injection, schedule: Q01DX009 (ip), vehicle: water) was 101 % of control.

For `Cn1c(=O)c2[nH]c([N+](=O)[O-])nc2n(C)c1=O`, the T/C (dose: 100.0 mg/kg/injection, schedule: Q04DX003 (ip), vehicle: saline) was 96 % of control, the T/C (dose: 200.0 mg/kg/injection, schedule: Q04DX003 (ip), vehicle: saline) was 100 % of control and the T/C (dose: 400.0 mg/kg/injection, schedule: Q04DX003 (ip), vehicle: saline) was 100 % of control.

With `O=C(Nn1nnnc1-c1ccccc1)c1ccccc1` the T/C (dose: 25.0 mg/kg/injection, schedule: Q01DX005 (ip), vehicle: Klucel (hydroxypropylcellulose) (HPC)) was 97 % of control, the T/C [1] was 92 % of control and the T/C [2] was 101 % of control.

In the case of `CC(S)c1nc2ccccc2[nH]1` (centres undefined), the T/C (dose: 100.0 mg/kg/injection, schedule: Q01DX001 (ip), vehicle: Klucel + Tween-80) was 100 % of control, the T/C (dose: 200.0 mg/kg/injection, schedule: Q01DX001 (ip), vehicle: Klucel + Tween-80) was 97 % of control and the T/C (dose: 400.0 mg/kg/injection, schedule: Q01DX001 (ip), vehicle: Klucel + Tween-80) was 111 % of control.

For `COc1cc2c(cc1OC)C1=[N+](CCC1)CC2`, the T/C (dose: 15.0 mg/kg/injection, schedule: Q01DX005 (ip), vehicle: saline) was 101 % of control, the T/C (dose: 30.0 mg/kg/injection, schedule: Q01DX005 (ip), vehicle: saline) was 99 % of control and the T/C [3] was 99 % of control.

`Nc1nc2nc(N=Nc3ccc(S(=O)(=O)O)cc3)[nH]c2c(=O)[nH]1` was tested, and the T/C [1] was 104 % of control, the T/C [2] was 104 % of control and the T/C (dose: 200.0 mg/kg/injection, schedule: Q01DX005 (ip), vehicle: Klucel (hydroxypropylcellulose) (HPC)) was 104 % of control.

For `CCCCCCCCCCCC(=O)NC1CCS(=O)(=O)C1` (centres undefined), the T/C (dose: 37.5 mg/kg/injection, schedule: Q01DX009 (ip), vehicle: Klucel (hydroxypropylcellulose) (HPC)) was 99 % of control, the T/C (dose: 75.0 mg/kg/injection, schedule: Q01DX009 (ip), vehicle: Klucel (hydroxypropylcellulose) (HPC)) was 96 % of control and the T/C (dose: 150.0 mg/kg/injection, schedule: Q01DX009 (ip), vehicle: Klucel (hydroxypropylcellulose) (HPC)) was 97 % of control. For the same compound, the T/C (dose: 300.0 mg/kg/injection, schedule: Q01DX009 (ip), vehicle: Klucel (hydroxypropylcellulose) (HPC)) was 95 % of control.

In the case of `CS(=O)(=O)CC(=N\O)/C(CS(C)(=O)=O)=N/O`, the T/C [3] was 103 % of control, the T/C (dose: 120.0 mg/kg/injection, schedule: Q01DX005 (ip), vehicle: saline) was 94 % of control and the T/C (dose: 240.0 mg/kg/injection, schedule: Q01DX005 (ip), vehicle: saline) was 103 % of control.

In the case of `CN(C)c1ccc2c(NCCCCCCNc3ccnc4cc(N(C)C)ccc34)ccnc2c1`, the T/C (dose: 1.56 mg/kg/injection, schedule: Q01DX009 (ip), vehicle: distilled water + alcohol) was 116 % of control, the T/C (dose: 6.25 mg/kg/injection, schedule: Q01DX009 (ip), vehicle: distilled water + alcohol) was 120 % of control and the T/C (dose: 12.5 mg/kg/injection, schedule: Q01DX009 (ip), vehicle: distilled water + alcohol) was 150 % of control and 152 % of control. The T/C (dose: 25.0 mg/kg/injection, schedule: Q01DX009 (ip), vehicle: distilled water + Tween-80 + alcohol) was 174 % of control and the T/C (dose: 50.0 mg/kg/injection, schedule: Q01DX009 (ip), vehicle: distilled water + alcohol) was 168 % of control.

In the case of `O=C1C=CC2(C=C1)N=C(c1ccccc1)C=C2c1ccccc1`, the T/C (dose: 50.0 mg/kg/injection, schedule: Q01DX005 (ip), vehicle: saline with Tween-80) was 101 % of control, the T/C (dose: 100.0 mg/kg/injection, schedule: Q01DX005 (ip), vehicle: saline with Tween-80) was 97 % of control and the T/C (dose: 200.0 mg/kg/injection, schedule: Q01DX005 (ip), vehicle: saline with Tween-80) was 93 % of control.

In the case of `CCOP(=O)(OCC)C1OCCCO1`, the T/C (dose: 50.0 mg/kg/injection, schedule: Q01DX009 (ip), vehicle: saline) was 102 % of control, the T/C (dose: 100.0 mg/kg/injection, schedule: Q01DX009 (ip), vehicle: saline) was 98 % of control and the T/C (dose: 200.0 mg/kg/injection, schedule: Q01DX009 (ip), vehicle: saline) was 106 % of control.

For `CC(=O)/C(C=NCC(C)(CN=C/C(C(C)=O)=C(/C)O)CN=C/C(C(C)=O)=C(/C)O)=C(\C)O` (centres undefined), the T/C (dose: 50.0 mg/kg/injection, schedule: Q01DX009 (ip), vehicle: Klucel (hydroxypropylcellulose) (HPC)) was 97 % of control, the T/C (dose: 100.0 mg/kg/injection, schedule: Q01DX009 (ip), vehicle: Klucel (hydroxypropylcellulose) (HPC)) was 100 % of control and the T/C (dose: 200.0 mg/kg/injection, schedule: Q01DX009 (ip), vehicle: Klucel (hydroxypropylcellulose) (HPC)) was 100 % of control.
